The source of these data is patent publication US10233173B2, “Substituted 1,2,3-triazoles as NR2B-selective NMDA modulators” (JANSSEN PHARMACEUTICA NV, priority 2016, dated 2019).

The structures appear in SMILES notation.

The target of the test is human GluN1/GluN2B NMDA receptors (Homo sapiens, UniProt Q05586+Q13224). The test is described as follows: Cell-based calcium flux (FLIPR) assay on cloned human NR1/NR2B ion channels expressed in mammalian cells. Conditions: standard assay; human GluN1/GluN2B, calcium flux (FLIPR), glutamate ~EC80. An outline of the steps: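 Calcium influx followed by FLIPR fluorescence after 5 min compound exposure and a further 5 min co-agonist challenge: 10 μM glycine with glutamate at ~EC80 (standard) or EC40 (HTS).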
Sequence of human GluN1/GluN2B NMDA receptors (Q13224 27-1484, other chains not shown): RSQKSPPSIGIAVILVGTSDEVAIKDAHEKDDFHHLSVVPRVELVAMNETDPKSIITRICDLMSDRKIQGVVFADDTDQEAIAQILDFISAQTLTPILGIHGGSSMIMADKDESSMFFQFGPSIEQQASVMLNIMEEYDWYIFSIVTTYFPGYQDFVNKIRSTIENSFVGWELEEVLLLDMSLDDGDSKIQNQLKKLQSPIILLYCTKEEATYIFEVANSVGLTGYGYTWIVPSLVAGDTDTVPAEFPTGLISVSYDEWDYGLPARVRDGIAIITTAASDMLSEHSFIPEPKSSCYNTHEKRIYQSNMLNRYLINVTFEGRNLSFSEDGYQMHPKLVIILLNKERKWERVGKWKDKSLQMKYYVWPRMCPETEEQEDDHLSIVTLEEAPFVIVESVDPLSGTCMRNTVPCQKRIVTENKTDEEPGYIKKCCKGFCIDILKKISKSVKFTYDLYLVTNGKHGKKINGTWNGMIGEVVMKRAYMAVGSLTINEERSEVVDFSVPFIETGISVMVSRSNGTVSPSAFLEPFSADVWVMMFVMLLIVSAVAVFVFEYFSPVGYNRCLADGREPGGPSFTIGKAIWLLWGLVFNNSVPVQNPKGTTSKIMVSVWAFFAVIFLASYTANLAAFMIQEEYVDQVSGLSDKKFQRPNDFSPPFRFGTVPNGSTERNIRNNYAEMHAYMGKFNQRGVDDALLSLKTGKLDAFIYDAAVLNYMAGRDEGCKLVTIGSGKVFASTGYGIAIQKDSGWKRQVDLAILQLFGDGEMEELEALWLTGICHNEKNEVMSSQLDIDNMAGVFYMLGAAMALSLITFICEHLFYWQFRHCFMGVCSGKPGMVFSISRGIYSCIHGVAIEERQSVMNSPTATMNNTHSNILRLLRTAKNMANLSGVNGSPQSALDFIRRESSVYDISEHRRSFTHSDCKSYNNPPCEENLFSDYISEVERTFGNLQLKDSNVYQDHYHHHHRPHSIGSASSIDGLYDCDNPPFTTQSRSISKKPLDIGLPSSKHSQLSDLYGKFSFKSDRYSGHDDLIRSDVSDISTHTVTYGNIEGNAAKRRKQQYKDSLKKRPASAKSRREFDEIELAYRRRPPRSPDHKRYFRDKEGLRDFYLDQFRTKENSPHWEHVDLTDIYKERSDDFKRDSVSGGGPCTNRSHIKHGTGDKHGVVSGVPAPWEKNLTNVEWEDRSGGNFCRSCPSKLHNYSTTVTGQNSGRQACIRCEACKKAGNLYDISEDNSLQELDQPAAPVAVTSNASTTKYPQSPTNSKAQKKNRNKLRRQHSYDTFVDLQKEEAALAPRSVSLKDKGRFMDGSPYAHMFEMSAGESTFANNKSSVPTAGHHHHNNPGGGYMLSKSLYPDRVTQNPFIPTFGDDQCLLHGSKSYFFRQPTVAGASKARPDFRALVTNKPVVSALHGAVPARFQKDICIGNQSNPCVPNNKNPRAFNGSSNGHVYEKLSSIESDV
For orientation: Calcium assays in cells follow changes in intracellular calcium, usually with a dye or a luminescent sensor.

Take `CCc1cnc(OCc2cn(-c3ccc(OC(F)(F)F)cc3)nn2)nc1` [Example 340, 5-Ethyl-2-[[1-[4-(trifluoromethoxy)phenyl]triazol-4-yl]methoxy]pyrimidine]: the IC50 was determined as 0.794 µM.

Consider `FC(F)(F)Oc1cccc(-n2cc(COc3ncccn3)nn2)c1` [Example 341, 2-[[1-[3-(Trifluoromethoxy)phenyl]triazol-4-yl]methoxy]pyrimidine], for which the IC50 worked out at 0.538 µM.

As for `Cc1cnc(OCc2cn(-c3cccc(OC(F)(F)F)c3)nn2)nc1` [Example 342, 5-Methyl-2-[[1-[3-(trifluoromethoxy)phenyl]triazol-4-yl]methoxy]pyrimidine], the IC50 was determined as 0.017 µM.

With `Cc1cnc(OCc2cn(-c3cccc(OC(F)(F)F)c3)nn2)nc1N` [Example 343, 5-Methyl-2-[[1-[3-(trifluoromethoxy)phenyl]triazol-4-yl]methoxy]pyrimidin-4-amine], the IC50 was found to be 0.04 µM.

`CC(=O)c1cnc(OCc2cn(-c3cccc(OC(F)(F)F)c3)nn2)nc1` [Example 344, 1-[2-[[1-[3-(Trifluoromethoxy)phenyl]triazol-4-yl]methoxy]pyrimidin-5-yl]ethanone]: the IC50 amounted to 0.062 µM.

`CC(C)(O)c1cnc(OCc2cn(-c3cccc(OC(F)(F)F)c3)nn2)nc1` [Example 345, 2-[2-[[1-[3-(Trifluoromethoxy)phenyl]triazol-4-yl]methoxy]pyrimidin-5-yl]propan-2-ol]: the IC50 came out at 0.284 µM.

As to `COCc1ccnc(OCc2cn(-c3cccc(OC(F)(F)F)c3)nn2)n1` [Example 346, 4-(Methoxymethyl)-2-[[1-[3-(trifluoromethoxy)phenyl]triazol-4-yl]methoxy]pyrimidine], the IC50 stood at 0.202 µM.

As to `Cc1ccnc(OCc2cn(-c3cccc(OC(F)(F)F)c3)nn2)n1` [Example 347, 4-Methyl-2-[[1-[3-(trifluoromethoxy)phenyl]triazol-4-yl]methoxy]pyrimidine], the IC50 was found to be 0.137 µM.

Consider `Fc1cnc(OCc2cn(-c3cccc(OC(F)(F)F)c3)nn2)nc1` [Example 348, 5-Fluoro-2-[[1-[3-(trifluoromethoxy)phenyl]triazol-4-yl]methoxy]pyrimidine], for which the IC50 was 0.447 µM.

As for `COc1cnc(OCc2cn(-c3cccc(OC(F)(F)F)c3)nn2)nc1` [Example 349, 5-Methoxy-2-[[1-[3-(trifluoromethoxy)phenyl]triazol-4-yl]methoxy]pyrimidine], the IC50 worked out at 0.013 µM.

Regarding `FC(F)(F)Oc1cccc(-n2cc(COc3ncc(Cl)cn3)nn2)c1` [Example 350, 5-Chloro-2-[[1-[3-(trifluoromethoxy)phenyl]triazol-4-yl]methoxy]pyrimidine], the IC50 was 0.05 µM.

As for `CCc1cnc(OCc2cn(-c3cccc(OC(F)(F)F)c3)nn2)nc1` [Example 351, 5-Ethyl-2-[[1-[3-(trifluoromethoxy)phenyl]triazol-4-yl]methoxy]pyrimidine], the IC50 was determined as 0.015 µM.

Consider `CNc1ccnc(OCc2cn(-c3cccc(OC(F)(F)F)c3)nn2)n1` [Example 352, N-Methyl-2-[[1-[3-(trifluoromethoxy)phenyl]triazol-4-yl]methoxy]pyrimidin-4-amine], for which the IC50 is 0.068 µM.

Turning to `Nc1ccnc(OCc2cn(-c3cccc(OC(F)(F)F)c3)nn2)n1` [Example 353, 2-[[1-[3-(Trifluoromethoxy)phenyl]triazol-4-yl]methoxy]pyrimidin-4-amine], the IC50 was found to be 0.525 µM.

Turning to `Cc1cnc(OCc2cn(-c3ccc4c(c3)OC(F)(F)O4)nn2)nc1` [Example 354, 2-[[1-(2,2-Difluoro-1,3-benzodioxol-5-yl)triazol-4-yl]methoxy]-5-methyl-pyrimidine], the IC50 was 0.073 µM.

With `FC1(F)Oc2ccc(-n3cc(COc4ncccn4)nn3)cc2O1` [Example 355, 2-[[1-(2,2-Difluoro-1,3-benzodioxol-5-yl)triazol-4-yl]methoxy]pyrimidine], the IC50 was 0.238 µM.

For `FC1(F)Oc2ccc(-n3cc(COc4ncc(Cl)cn4)nn3)cc2O1` [Example 356, 5-Chloro-2-[[1-(2,2-difluoro-1,3-benzodioxol-5-yl)triazol-4-yl]methoxy]pyrimidine], the IC50 is 0.185 µM.

Take `Cc1nc(OCc2cn(-c3ccc4c(c3)OC(F)(F)O4)nn2)ncc1F` [Example 357, 2-[[1-(2,2-Difluoro-1,3-benzodioxol-5-yl)triazol-4-yl]methoxy]-5-fluoro-4-methyl-pyrimidine]: the IC50 came to 0.35 µM.

Turning to `Fc1cnc(OCc2cn(-c3ccc4c(c3)OC(F)(F)O4)nn2)nc1` [Example 358, 2-[[1-(2,2-Difluoro-1,3-benzodioxol-5-yl)triazol-4-yl]methoxy]-5-fluoro-pyrimidine], the IC50 is 0.726 µM.

Take `Cc1cnc(OCc2cn(-c3ccc4c(c3)OC(F)(F)O4)nn2)nc1C` [Example 359, 2-[[1-(2,2-Difluoro-1,3-benzodioxol-5-yl)triazol-4-yl]methoxy]-4,5-dimethyl-pyrimidine]: the IC50 was found to be 0.009 µM.

In the case of `Cc1cc(C)cc(-n2cc(COc3ncccn3)nn2)c1` [Example 360, 2-[[1-(3,5-Dimethylphenyl)triazol-4-yl]methoxy]pyrimidine], the IC50 turned out to be 0.791 µM.

Take `Cc1cc(C)cc(-n2cc(COc3ncc(F)cn3)nn2)c1` [Example 361, 2-[[1-(3,5-Dimethylphenyl)triazol-4-yl]methoxy]-5-fluoro-pyrimidine]: the IC50 was determined as 0.587 µM.

For the compound `COc1cnc(OCc2cn(-c3cc(C)cc(C)c3)nn2)nc1` [Example 362, 2-[[1-(3,5-Dimethylphenyl)triazol-4-yl]methoxy]-5-methoxy-pyrimidine], the IC50 is 0.032 µM.

Regarding `Cc1cc(C)cc(-n2cc(COc3ncc(Cl)cn3)nn2)c1` [Example 363, 5-Chloro-2-[[1-(3,5-dimethylphenyl)triazol-4-yl]methoxy]pyrimidine], the IC50 was 0.118 µM.

Take `Cc1cnc(OCc2cn(-c3cc(C)cc(C)c3)nn2)nc1` [Example 364, 2-[[1-(3,5-Dimethylphenyl)triazol-4-yl]methoxy]-5-methyl-pyrimidine]: the IC50 turned out to be 0.027 µM.

Regarding `CCc1cnc(OCc2cn(-c3cc(C)cc(C)c3)nn2)nc1` [Example 365, 2-[[1-(3,5-Dimethylphenyl)triazol-4-yl]methoxy]-5-ethyl-pyrimidine], the IC50 turned out to be 0.022 µM.

As for `Cc1cnc(OCc2cn(-c3ccc4c(c3)CCC4)nn2)nc1` [Example 366, 2-[(1-Indan-5-yltriazol-4-yl)methoxy]-5-methyl-pyrimidine], the IC50 came to 0.02 µM.

As for `Clc1cnc(OCc2cn(-c3ccc4c(c3)CCC4)nn2)nc1` [Example 367, 5-Chloro-2-[(1-indan-5-yltriazol-4-yl)methoxy]pyrimidine], the IC50 turned out to be 0.053 µM.

As for `COCc1ccnc(OCc2cn(-c3ccc4c(c3)CCC4)nn2)n1` [Example 368, 2-[(1-Indan-5-yltriazol-4-yl)methoxy]-4-(methoxymethyl)pyrimidine], the IC50 stood at 0.114 µM.

As to `CC(C)(O)c1cnc(OCc2cn(-c3ccc4c(c3)CCC4)nn2)nc1` [Example 369, 2-[2-[(1-Indan-5-yltriazol-4-yl)methoxy]pyrimidin-5-yl]propan-2-ol], the IC50 was 0.175 µM.

For the compound `FC(F)c1ccnc(OCc2cn(-c3ccc4c(c3)CCC4)nn2)n1` [Example 370, 4-(Difluoromethyl)-2-[(1-indan-5-yltriazol-4-yl)methoxy]pyrimidine], the IC50 is 0.397 µM.

Take `Cc1nc(OCc2cn(-c3ccc4c(c3)CCC4)nn2)ncc1Cl` [Example 371, 5-Chloro-2-[(1-indan-5-yltriazol-4-yl)methoxy]-4-methyl-pyrimidine]: the IC50 stood at 0.039 µM.

As to `Cc1cnc(OCc2cn(-c3ccc(Cl)c(OC(F)F)c3)nn2)nc1C` [Example 372, 2-[[1-[4-Chloro-3-(difluoromethoxy)phenyl]triazol-4-yl]methoxy]-4,5-dimethyl-pyrimidine], the IC50 was found to be 0.008 µM.

`CC(C)c1cnc(OCc2cn(-c3ccc(Cl)c(OC(F)F)c3)nn2)nc1` [Example 373, 2-[[1-[4-Chloro-3-(difluoromethoxy)phenyl]triazol-4-yl]methoxy]-5-isopropyl-pyrimidine]: the IC50 came out at 0.01 µM.

With `C[C@@H](Oc1ncccn1)c1cn(-c2ccc(Cl)c(OC(F)F)c2)nn1` [Example 374, 2-[(1R)-1-[1-[4-Chloro-3-(difluoromethoxy)phenyl]triazol-4-yl]ethoxy]pyrimidine], the IC50 came out at 0.011 µM.

As to `C[C@@H](Oc1ncc(Cl)cn1)c1cn(-c2ccc(Cl)c(OC(F)F)c2)nn1` [Example 375, 5-Chloro-2-[(1R)-1-[1-[4-chloro-3-(difluoromethoxy)phenyl]triazol-4-yl]ethoxy]pyrimidine], the IC50 is 0.01 µM.

Take `Cc1cnc(O[C@H](C)c2cn(-c3ccc(Cl)c(OC(F)F)c3)nn2)nc1` [Example 376, 2-[(1R)-1-[1-[4-Chloro-3-(difluoromethoxy)phenyl]triazol-4-yl]ethoxy]-5-methyl-pyrimidine]: the IC50 was 0.011 µM.

Regarding `COc1cnc(O[C@H](C)c2cn(-c3ccc(Cl)c(OC(F)F)c3)nn2)nc1` [Example 377, 2-[(1R)-1-[1-[4-Chloro-3-(difluoromethoxy)phenyl]triazol-4-yl]ethoxy]-5-methoxy-pyrimidine], the IC50 is 0.01 µM.

As for `C[C@H](Oc1ncccn1)c1cn(-c2ccc(Cl)c(OC(F)F)c2)nn1` [Example 378, 2-[(1S)-1-[1-[4-Chloro-3-(difluoromethoxy)phenyl]triazol-4-yl]ethoxy]pyrimidine], the IC50 worked out at 2.3 µM.

For the compound `C[C@H](Oc1ncc(Cl)cn1)c1cn(-c2ccc(Cl)c(OC(F)F)c2)nn1` [Example 379, 5-Chloro-2-[(1S)-1-[1-[4-chloro-3-(difluoromethoxy)phenyl]triazol-4-yl]ethoxy]pyrimidine], the IC50 turned out to be 0.575 µM.

Take `Cc1cnc(O[C@@H](C)c2cn(-c3ccc(Cl)c(OC(F)F)c3)nn2)nc1` [Example 380, 2-[(1S)-1-[1-[4-Chloro-3-(difluoromethoxy)phenyl]triazol-4-yl]ethoxy]-5-methyl-pyrimidine]: the IC50 came to 0.237 µM.

As a reminder, the IC50 is the concentration that gives 50% inhibition.
